Experimental data reported in patent publication US20090130707A1, “Methods of reducing the inhibitory effect of a redox active metal ion on the enzymatic hydrolysis of cellulosic material” (priority 2007, published 2009).

Assays:
[1] = Hydrolysis of PCS stripped with chelator; format: biochemical; conditions: PCS (43 g per liter) stripped overnight with 10 mM chelator, then washed
Protocol: To test whether there was any significant amount of (accessible) Fe(II) in PCS, and whether stripping it with a chelator would improve PCS hydrolysis, washed PCS (43 g per liter) was “stripped” with 10 mM 2,2′-bipyridyl, 1,10-phenanthroline, or 1,7-phenanthroline. After overnight pre-incubation, the PCS was extensively washed to remove the chelator. The hydrolysis was performed in a series of duplicate “mini-scale” hydrolysis reactions performed according to the procedure described in Example 30.

[2] = system: Cellulolytic Enzyme Composition #1; assay: mini-scale PCS hydrolysis by Cellulolytic Enzyme Composition #1; format: biochemical, Trichoderma reesei; conditions: PCS hydrolysis (FIGS. 23A-23D)
Protocol: (§1) The effect of various salts (FeSO4, FeCl2, NaCl, Na2SO4, MnSO4, MnCl2) was determined in the hydrolysis of PCS by Cellulolytic Enzyme Composition #2. The PCS hydrolysis was performed in duplicate in capped 1.7 ml EPPENDORF® tubes (“mini-scale”) containing 1 ml suspensions of 43.4 g of PCS (dry weight) per liter, 10 mM salts in 50 mM sodium acetate pH 5. Cellulolytic Enzyme Composition #2 was added at 0.25 g per liter. Reactions without the addition of the salt served as controls. The capped tubes were incubated at 50° C. in an INNOVA® 4080 incubator shaker (New Brunswick Scientific Co., Inc., Edison, N.J., USA) at 150 rpm.
(§2) Aliquots of the suspensions, sampled over time, were filtered by centrifugation using a 0.45 μm MULTISCREEN® HV membrane (Millipore, Billerica, Mass., USA) at 2000 rpm for 15 minutes using a SORVALL® RT7 centrifuge (Thermo Fisher Scientific, Waltham, Mass., USA). When not used immediately, the filtered sugary aliquots were frozen at −20° C. Sugar concentrations of the samples diluted in 0.005 M H2SO4 were measured after elution from a 4.6×250 mm AMINEX® HPX-87H column (Bio-Rad, Hercules, Calif., USA) by 0.005 M H2SO4 at a flow rate of 0.4 ml/minute at 65° C. with quantitation by integration of glucose and cellobiose using refractive index detection (CHEMSTATION®, AGILENT® 1100 HPLC, Agilent Technologies, Santa Clara, Calif., USA) calibrated with standards of glucose and cellobiose. The resultant equivalents were used to calculate the percentage of cellulose conversion for each reaction.
Example 30 was repeated with both Cellulolytic Enzyme Composition #1 and Cellulolytic Enzyme Composition #2. Soluble reducing sugars were measured by HPLC as described in Example 30. Reactions without the addition of FeSO4 served as controls.
The hydrolysis was performed in a series of duplicate “mini-scale” hydrolysis reactions according to the procedure described in Example 30.

[3] = system: Cellulolytic Enzyme Composition #1; assay: mini-scale AVICEL hydrolysis by Cellulolytic Enzyme Composition #1; format: biochemical, Trichoderma reesei; conditions: 3 mM; 23 g AVICEL and 0.25 g enzyme per liter
Protocol: FIGS. 19A, 19B, 19C, and 19D show the effective inhibitory concentration range of Fe(II) on the hydrolysis of AVICEL® by Cellulolytic Enzyme Composition #1 (A and B) and on the hydrolysis of PASC by Cellulolytic Enzyme Composition #1 (C and D). The AVICEL® hydrolysis was conducted with […] of AVICEL® and 0.25 g of Cellulolytic Enzyme Composition #1 per liter of 50 mM sodium acetate pH 5 at 50° C. FeSO4 (mM): (∘) 0, (+) 1, (Δ) 3, (⋄) 5, (□) 10. Dixon plot linear regression line: 1/Rate=(0.035±0.003)[Fe(II)]+(0.043±0.015), r^2=0.978. Rate was estimated from the hydrolysis difference (%) at 24 and 6 hours. The PASC hydrolysis was conducted with 2 g of PASC and 50 mg of Cellulolytic Enzyme Composition #1 per liter of 50 mM sodium acetate pH 5 at 50° C. Dixon plot linear regression line: 1/Rate=(0.0042±0.0003)[Fe(II)]+(0.059±0.002), r^2=0.994. Rates were estimated from the hydrolysis difference (%) at 7 hours.
as §1
In one series of “mini-scale” hydrolysis reactions performed according to the procedure described in Example 30, the effect of 1 mM to 10 mM FeSO4 was evaluated in the hydrolysis of AVICEL® by Cellulolytic Enzyme Composition #1.

[4] = system: Cellulolytic Enzyme Composition #2; assay: mini-scale PCS hydrolysis by Cellulolytic Enzyme Composition #2; format: biochemical, Trichoderma reesei; conditions: 10 mM Fe(II) (FIG. 17B)
Protocol: Corn stover was pretreated at the U.S. Department of Energy National Renewable Energy Laboratory (NREL), […], Colo., USA, using dilute sulfuric acid. The following conditions were used for the pretreatment: 1.4 wt % sulfuric acid at 195° C. for 4.5 minutes. According to limit digestion with excess cellulase enzymes, the water-insoluble solids in the pretreated corn stover (PCS) contained 59.5% cellulose. Prior to use, the PCS was washed with a large volume of deionized water until soluble acid and sugars were removed. The dry weight of the water-washed PCS was 19.16%.
The effect of various salts (FeSO4, FeCl2, NaCl, Na2SO4, MnSO4, MnCl2) was determined in the hydrolysis of PCS by Cellulolytic Enzyme Composition #2. […] Cellulolytic Enzyme Composition #2 was added at 0.25 g per liter. Reactions without the addition of the salt served as controls. The capped tubes were incubated at 50° C. in an INNOVA® 4080 incubator shaker (New Brunswick Scientific Co., Inc., Edison, N.J., USA) at 150 rpm.
as §2
The degree of cellulose conversion to glucose plus cellobiose (% conversion) was calculated using the following equation:
% Conversion=(glucose+cellobiose×1.053)(mg/ml)×100×162/cellulose(mg/ml)×180)=(glucose+cellobiose×1.053)(mg/ml)×100/(cellulose(mg/ml)×1.111)
In this equation the factor 1.111 reflects the weight gain in converting cellulose to glucose, and the factor 1.053 reflects the weight gain in converting cellobiose to glucose. Cellulose in PCS was determined by a limit digest of PCS to release glucose and cellobiose.

[5] = biological target: T1, Trichoderma reesei Cel5A endoglucanase II (Trichoderma reesei, UniProt P07982); assay: PASC hydrolysis by Cel5A endoglucanase II; format: biochemical
T1 construct: made in house; host or cells: Aspergillus oryzae JaL250 (transformant JaL250AlLo27)

[6] = system: Cellulolytic Enzyme Composition #1; assay: mini-plate-scale AVICEL hydrolysis by Cellulolytic Enzyme Composition #1; format: biochemical, Trichoderma reesei
Protocol: (§3) Various (biologically common) divalent metal cations with variable ionic radii were tested in 2.8 ml Deep Well Microplates (VWR International, West Chester, Pa., USA) (“mini-plate-scale”) containing 1 ml suspensions of 25 g of AVICEL® per liter in 50 mM sodium acetate pH 5 at 50° C. Cellulolytic Enzyme Composition #1 was added at 0.25 g per liter for each hydrolysis. The mini-plates were sealed at 160° C. for 2 seconds using an ABGENE® ALPS 300™ sealer (ABgene, Rochester, N.Y., USA). The sealed mini-plates were incubated at 50° C. in an INNOVA® 4080 incubator shaker at 150 rpm. Soluble reducing sugars were measured by HPLC as described in Example 30.
Iron-chelator complexes of variable size or redox property were tested for their ability to inhibit enzymatic hydrolysis of cellulose. […]

[7] = ionic radii in crystals, 6-ligand coordination; cited from earlier work
[8] = biological target: Cellulolytic Enzyme Composition #1; assay: mini-plate-scale PASC hydrolysis by Cellulolytic Enzyme Composition #1; format: biochemical, Trichoderma reesei; conditions: PASC; Enzymes: Cellulolytic Enzyme Composition #1; read-out: I50 (mean ± SD)
Protocol: as §3
In one series of “mini-scale” hydrolysis reactions performed according to the procedure described in Example 30, the effect of 1 mM to 10 mM FeSO4 was evaluated in the hydrolysis of AVICEL® by Cellulolytic Enzyme Composition #1. In a series of “mini-plate-scale” hydrolysis reactions performed according to the procedure described in Example 32, the effect of 1 mM to 10 mM FeSO4 was evaluated in the hydrolysis of PASC by Cellulolytic Enzyme Composition #1, except 2 g of PASC and 0.05 g Cellulolytic Enzyme Composition #1 per liter of 50 mM sodium acetate pH 5 were used.
The above study was extended to a range of concentration of Fe(II) and cellulose. In a series of “mini-plate-scale” hydrolysis reactions performed according to the procedure described in Example 32, except that 0.1 to 10 mM FeSO4, 0.6 to 4 g of PASC and 0.01 g of Cellulolytic Enzyme Composition #1 per liter of 50 mM sodium acetate pH 5 were used.

[9] = biological target: T2, Trichoderma reesei Cel7B endoglucanase I (Trichoderma reesei, UniProt P07981); assay: PASC hydrolysis by Cel7B endoglucanase I; format: biochemical
T2 construct: made in house; host or cells: Aspergillus oryzae JaL250

[10] = biological target: T3, Aspergillus oryzae CEL3A beta-glucosidase (Aspergillus oryzae, UniProt Q2UUD6); assay: Cellobiose hydrolysis by CEL3A beta-glucosidase; format: biochemical
T3 construct: made in house
Protocol: The Fe(II) inhibition of Aspergillus oryzae CEL3A beta-glucosidase was measured similarly, except cellobiose replaced PASC. The initial rate vs Fe(II) concentration plots appeared as “mixed” type, whose complexity prevented extraction of Kis.

[11] = biological target: T4, Trichoderma reesei Cel7A cellobiohydrolase I (Trichoderma reesei, UniProt P62694); assay: PASC hydrolysis by Cel7A cellobiohydrolase I; format: biochemical
T4 construct: made in house

[12] = 0-15 mM FeSO4, 0.6-4 g PASC per liter

T1 sequence (P07982 22-418): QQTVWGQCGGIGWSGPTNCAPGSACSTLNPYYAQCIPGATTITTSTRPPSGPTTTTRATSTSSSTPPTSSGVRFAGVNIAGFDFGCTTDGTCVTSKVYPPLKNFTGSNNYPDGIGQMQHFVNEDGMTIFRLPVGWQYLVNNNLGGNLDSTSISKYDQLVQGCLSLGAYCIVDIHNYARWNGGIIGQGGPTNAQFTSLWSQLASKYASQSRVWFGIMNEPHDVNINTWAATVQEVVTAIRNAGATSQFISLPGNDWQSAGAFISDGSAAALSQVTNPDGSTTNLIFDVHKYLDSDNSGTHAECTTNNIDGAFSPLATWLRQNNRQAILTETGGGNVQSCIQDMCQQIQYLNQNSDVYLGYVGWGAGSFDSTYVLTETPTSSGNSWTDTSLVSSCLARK
T3 sequence (Q2UUD6 20-861): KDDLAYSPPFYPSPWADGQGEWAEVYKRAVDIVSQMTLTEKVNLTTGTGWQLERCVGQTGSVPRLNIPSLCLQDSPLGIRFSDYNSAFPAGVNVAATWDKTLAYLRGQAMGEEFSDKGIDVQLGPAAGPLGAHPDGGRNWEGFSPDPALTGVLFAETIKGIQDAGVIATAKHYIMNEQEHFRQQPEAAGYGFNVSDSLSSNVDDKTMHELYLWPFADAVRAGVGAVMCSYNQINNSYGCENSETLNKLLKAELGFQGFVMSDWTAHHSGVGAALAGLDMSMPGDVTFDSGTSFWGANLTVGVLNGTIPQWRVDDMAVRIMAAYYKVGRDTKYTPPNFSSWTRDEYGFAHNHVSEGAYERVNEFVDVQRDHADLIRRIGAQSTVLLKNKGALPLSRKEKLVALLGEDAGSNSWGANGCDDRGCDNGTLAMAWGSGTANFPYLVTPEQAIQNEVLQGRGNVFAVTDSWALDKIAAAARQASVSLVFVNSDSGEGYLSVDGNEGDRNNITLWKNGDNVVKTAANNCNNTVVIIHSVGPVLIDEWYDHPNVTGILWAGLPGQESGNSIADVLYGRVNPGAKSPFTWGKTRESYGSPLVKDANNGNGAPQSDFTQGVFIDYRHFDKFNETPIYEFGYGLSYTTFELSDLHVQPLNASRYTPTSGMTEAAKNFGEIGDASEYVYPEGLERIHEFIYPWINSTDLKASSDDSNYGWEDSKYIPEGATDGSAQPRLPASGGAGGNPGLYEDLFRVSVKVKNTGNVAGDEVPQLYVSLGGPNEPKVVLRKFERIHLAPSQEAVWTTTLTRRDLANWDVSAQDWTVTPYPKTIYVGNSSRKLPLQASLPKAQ
T2 sequence (P07981 23-459): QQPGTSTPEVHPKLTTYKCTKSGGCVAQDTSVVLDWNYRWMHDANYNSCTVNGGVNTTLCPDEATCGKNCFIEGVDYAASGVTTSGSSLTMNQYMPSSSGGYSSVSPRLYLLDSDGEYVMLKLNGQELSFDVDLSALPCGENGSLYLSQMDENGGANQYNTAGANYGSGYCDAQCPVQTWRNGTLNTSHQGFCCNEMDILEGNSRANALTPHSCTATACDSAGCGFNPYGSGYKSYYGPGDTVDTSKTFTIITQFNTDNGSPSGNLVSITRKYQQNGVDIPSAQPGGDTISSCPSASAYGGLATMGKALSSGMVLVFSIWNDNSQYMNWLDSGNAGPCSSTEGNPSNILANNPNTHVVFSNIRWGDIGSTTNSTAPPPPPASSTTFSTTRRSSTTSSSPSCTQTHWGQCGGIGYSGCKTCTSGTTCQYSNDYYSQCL
T4 sequence (P62694 18-513): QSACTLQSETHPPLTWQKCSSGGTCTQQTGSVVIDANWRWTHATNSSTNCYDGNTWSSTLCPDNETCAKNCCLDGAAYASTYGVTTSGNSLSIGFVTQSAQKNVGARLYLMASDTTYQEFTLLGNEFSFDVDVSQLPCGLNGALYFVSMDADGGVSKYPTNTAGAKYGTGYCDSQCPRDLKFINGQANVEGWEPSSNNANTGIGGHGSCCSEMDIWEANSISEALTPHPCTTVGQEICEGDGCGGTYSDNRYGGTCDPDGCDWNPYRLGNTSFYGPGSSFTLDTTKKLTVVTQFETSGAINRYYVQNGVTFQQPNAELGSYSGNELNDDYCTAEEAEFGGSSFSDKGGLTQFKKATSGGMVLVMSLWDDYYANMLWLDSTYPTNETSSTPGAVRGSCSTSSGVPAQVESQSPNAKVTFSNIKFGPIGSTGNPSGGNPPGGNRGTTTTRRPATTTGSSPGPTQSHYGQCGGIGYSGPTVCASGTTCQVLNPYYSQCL

SMILES | increase in hydrolysis extent [1] | Effect of chelator on enzyme in the absence of FeSO4 [2] | Effect on AVICEL hydrolysis [3] | activity loss [4] | Type of initial rate vs Fe(II) concentration plots [5, 12] | IC50 ([5]; PASC, CEL5A EGII, 40 mg enzyme per liter, read-out: I50 (mean ± SD)) [mM] | Effect on enzymatic cellulolysis: loss in initial rate ([6]; 10 mM, 25 g AVICEL and 0.25 g enzyme per liter, pH 5, 50° C.) | Effect on enzymatic cellulolysis: loss in extended hydrolysis extent ([6]; 10 mM, 25 g AVICEL and 0.25 g enzyme per liter, pH 5, 50° C., after 4 days) | IC50 ([6]; Avicel, Enzymes: Cellulolytic Enzyme Composition #1, read-out: I50 (mean ± SD)) [mM] | Radius [7] [Å] | IC50 [8] [mM] | Type of initial rate vs Fe(II) concentration plots [9, 12] | IC50 ([9]; PASC, CEL7B EGI, 40 mg enzyme per liter, read-out: I50 (mean ± SD)) [mM] | Type of initial rate vs Fe(II) concentration plots ([10]; 0-15 mM FeSO4, cellobiose replaced PASC) | IC50 ([10]; CEL3A BG, on cellobiose hydrolysis, read-out: I50 (mean ± SD)) [mM] | Type of initial rate vs Fe(II) concentration plots [11, 12] | IC50 ([11]; PASC, CEL7A CBHI, 40 mg enzyme per liter, read-out: I50 (mean ± SD)) [mM]
c1ccc(-c2ccccn2)nc1 [2,2′-bipyridyl] | approximately 4% | significant inhibition | No significant inhibition |  |  |  |  |  |  |  |  |  |  |  |  |  | 
[Fe+2] [Fe(II)] |  |  |  | approximately 70% | mixed | 12 ± 4 | ~70% loss in initial rate, ~70% loss in extended hydrolysis extent | ~70% loss in initial rate, ~70% loss in extended hydrolysis extent | 2 ± 1 | 0.61 | 14 ± 1 | mixed | 1.8 ± 0.2 | mixed | 13 ± 2 | mixed | 7 ± 2
